One test deals with T1, human LBAT (Homo sapiens, UniProt Q14973).
T1 construct: expressed in transfected cells; kept under Geneticin selection
T1 sequence (Q14973 1-349): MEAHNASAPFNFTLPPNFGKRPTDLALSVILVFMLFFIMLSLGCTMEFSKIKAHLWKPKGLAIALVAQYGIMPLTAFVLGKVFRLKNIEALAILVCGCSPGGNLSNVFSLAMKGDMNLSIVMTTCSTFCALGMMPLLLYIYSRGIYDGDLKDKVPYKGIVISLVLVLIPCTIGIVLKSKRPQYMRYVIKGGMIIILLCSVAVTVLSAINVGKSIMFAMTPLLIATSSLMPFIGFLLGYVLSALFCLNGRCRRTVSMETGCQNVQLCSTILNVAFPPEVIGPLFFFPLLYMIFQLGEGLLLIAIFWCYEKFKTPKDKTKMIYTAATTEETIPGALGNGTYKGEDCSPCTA
The test is described as follows: LBAT (h/m) assay: 3H-taurocholic acid uptake in human LBAT-overexpressing cells. It counts as cell-based. Conditions: 0.3 μM 3H-taurocholic acid and 7.5 μM cold taurocholic acid, 20 minutes, read-out: hLBAT IC50. Here is the method:
LBAT (h/m) Assay Protocol
20,000 cells (Human or Mouse LBAT-overexpressing cells) were seeded in 96-wells plate (Corning CLS3809) in 100 μL MEM-alpha medium (Gibco 12571-063) supplemented with 10% FBS (Gibco 10438026) containing Geneticin (Gibco 10131-027) (1 mg/mL) and incubated at 37° C. in 5% CO2 for 24 hours. After incubation, media was decanted from the wells and cells were washed two times with 300 μL of basal MEM-alpha medium (FBS-free). After decanting basal MEM-alpha medium each time, plates were tapped against paper towel to ensure maximum removal of residual media. For human LBAT, incubation mix was prepared by adding test inhibitor dilutions (3-fold serial dilution in DMSO (Sigma D2650), 10 points) in MEM-alpha (without FBS) containing 0.3 μM 3H-taurocholic acid (ARC ART-1368) and 7.5 μM cold taurocholic acid (Sigma T4009) (maintaining 0.2% final DMSO concentration). For mouse LBAT, incubation mix was prepared by adding test inhibitor dilutions (3-fold serial dilution in DMSO, 10 points) in MEM-alpha (without FBS) containing 0.3 μM 3H-taurocholic acid and 25 μM cold taurocholic acid maintaining 0.2% final DMSO concentration). 50 μL of incubation mix containing test inhibitors was then added to the wells (in duplicate) and the plates were incubated for 20 minutes in a CO2 incubator at 37° C. After incubation, the reaction was stopped by keeping the plates on ice water mix for 2-3 minutes and then the incubation mix was aspirated completely from the wells. The wells were washed two times with 250 μL of chilled unlabelled 1 mM taurocholic acid dissolved in HEPES (Gibco 15630080)-buffered (10 mM) HBSS (Gibco 14175079) (pH 7.4). The plates were tapped against a paper towel after every wash to ensure maximum removal of blocking buffer.
100 μL of MicroScint-20 (PerkinElmer 6013621) was added to the wells and kept overnight at room temperature before reading the plates in TopCount NXT™ Microplate Scintillation and Luminescence Counter from PerkinElmer under 3H Test protocol (set at 120 seconds reading time per well, with normal plate orientation).
(§1) Preparation of Test Compound Dilutions
(§2) All test compounds were provided in powder form at room temperature. 10 mM DMSO stocks of the test compounds were prepared, aliquoted and stored at −20° C. From the 10 mM DMSO stock of the compounds, a 3-fold serial dilution in DMSO was prepared to get a total of 10 dilutions of the test compounds. 0.5 μL of this dilution in DMSO was added to 250 μL of FBS-free basal media containing 3H-taurocholic acid and cold taurocholic acid to prepare the incubation mixture.

The target of the next test is T2, human IBAT (Homo sapiens, UniProt Q12908).
T2 construct: expressed in transfected cells; kept under Puromycin selection
T2 sequence (Q12908 1-348): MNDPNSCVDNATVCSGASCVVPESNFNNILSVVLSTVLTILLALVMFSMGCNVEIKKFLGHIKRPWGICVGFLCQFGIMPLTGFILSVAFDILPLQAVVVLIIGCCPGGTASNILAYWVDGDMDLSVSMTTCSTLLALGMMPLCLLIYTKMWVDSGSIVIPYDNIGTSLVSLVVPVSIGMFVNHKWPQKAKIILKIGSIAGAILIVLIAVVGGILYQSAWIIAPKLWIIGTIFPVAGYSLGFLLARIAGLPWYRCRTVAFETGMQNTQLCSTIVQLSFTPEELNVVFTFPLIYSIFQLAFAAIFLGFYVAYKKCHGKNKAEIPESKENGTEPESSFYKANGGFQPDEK
Nature of the test: IBAT (h/m) assay: 3H-taurocholic acid uptake in human IBAT-overexpressing cells. It counts as cell-based. Conditions: 0.25 μM 3H-taurocholic acid and 5 μM cold taurocholic acid, 20 minutes, highest test concentration 10 μM, read-out: hIBAT IC50. Here is the method:
IBAT (h/m) Assay Protocol
10,000 cells (Human or Mouse IBAT-overexpressing cells) were seeded in 96-wells plate (Corning CLS3809) in 200 μL MEM-alpha medium (Gibco 12571-063) supplemented with 10% FBS (Gibco 10438026) containing Puromycin (Gibco A1113803) (10 μg/mL) and incubated at 37° C. in 5% CO2 for 48 hours. After incubation, media was decanted from the wells and cells were washed two times with 300 μL of basal MEM-alpha medium (FBS-free). After decanting basal MEM-alpha medium each time, plates were tapped against paper towel to ensure maximum removal of residual media. Test inhibitor dilutions (highest test concentration being 10 μM, 3-fold serial dilution, 10 points) prepared in DMSO (Sigma D2650) were added in incubation mix (maintaining 0.2% final DMSO concentration) containing 0.25 μM 3H-taurocholic acid (ARC ART-1368) and 5 μM of cold taurocholic acid (Sigma T4009). 50 μL of incubation mix containing test inhibitors was then added to the wells (in duplicate) and the plates were incubated for 20 minutes in a CO2 incubator at 37° C. After incubation, the reaction was stopped by keeping the plates on ice water mix for 2-3 minutes and then the incubation mix was aspirated completely from the wells. The wells were washed two times with 250 μL of chilled unlabelled 1 mM taurocholic acid dissolved in HEPES (Gibco 15630080)-buffered (10 mM) HBSS (Gibco 14175079) (pH 7.4). The plates were tapped against a paper towel after every wash to ensure maximum removal of blocking buffer.
100 μL of MicroScint-20 (PerkinElmer 6013621) was added to the wells and kept overnight at room temperature before reading the plates in TopCount NXT™ Microplate Scintillation and Luminescence Counter from PerkinElmer under 3H Test protocol (set at 120 seconds reading time per well).
as §1, §2

Some results are limits rather than exact numbers.

For `CCCCC1CN(c2ccccc2)c2cc(SCC)c(O/C=C/C(=O)O)cc2S(=O)(=O)N1` (racemic) [Example 4, (E)-3-((3-Butyl-7-(ethylthio)-1,1-dioxido-5-phenyl-2,3,4,5-tetrahydro-1,2,5-benzothiadiazepin-8-yl)oxy)acrylic acid], the IC50 on human LBAT is 3.4 nM; at human IBAT, over 10000 nM.

As to `CCCCC1CN(c2ccccc2)c2cc(SCC)c(O/C=C(\F)C(=O)O)cc2S(=O)(=O)N1C` (racemic) [Example 24, (Z)-3-((3-butyl-7-(ethylthio)-2-methyl-1,1-dioxido-5-phenyl-2,3,4,5-tetrahydro-1,2,5-benzothiadiazepin-8-yl)oxy)-2-fluoroacrylic acid], the IC50 is 1.3 nM at human LBAT and 1790 nM on human IBAT.

In the case of `CCCCC1CN(c2ccc(F)cc2)c2cc(SC)c(O/C=C(\F)C(=O)O)cc2S(=O)(=O)N1` (racemic) [Example 27, (Z)-3-((3-butyl-5-(4-fluorophenyl)-7-(methylthio)-1,1-dioxido-2,3,4,5-tetrahydro-1,2,5-benzothiadiazepin-8-yl)oxy)-2-fluoroacrylic acid], the IC50 was 13 nM at human LBAT and 481 nM at human IBAT.

For `CCCCC1CN(c2ccc(F)cc2)c2cc(SC)c(O/C=C/C(=O)O)cc2S(=O)(=O)N1` (single isomer, unassigned) [Example 2, (E)-3-((3-butyl-5-(4-fluorophenyl)-7-(methylthio)-1,1-dioxido-2,3,4,5-tetrahydro-1,2,5-benzothiadiazepin-8-yl)oxy)acrylic acid], the IC50 at human LBAT is 278 nM; on human IBAT, over 10000 nM.

For `CCCCC1CN(c2ccccc2)c2cc(SCC)c(O/C=C/C(=O)O)cc2S(=O)(=O)N1` (single isomer, unassigned) [Example 5, (E)-3-((3-butyl-7-(ethylthio)-1,1-dioxido-5-phenyl-2,3,4,5-tetrahydro-1,2,5-benzothiadiazepin-8-yl)oxy)acrylic acid], the IC50 on human LBAT is 3.4 nM; at human IBAT, 8810 nM.

In the case of `CCCCC1CN(c2ccc(F)cc2)c2cc(SCC)c(O/C=C/C(=O)O)cc2S(=O)(=O)C1` (single isomer, unassigned) [Example 8, (E)-3-((3-butyl-7-(ethylthio)-5-(4-fluorophenyl)-1,1-dioxido-2,3,4,5-tetrahydro-1,5-benzothiazepin-8-yl)oxy)acrylic acid], the figures for the IC50 at human LBAT and at human IBAT were over 333 nM and over 10000 nM, respectively.

As to `CCCCC1CN(c2ccc(F)cc2)c2cc(SC)c(O/C=C(\F)C(=O)O)cc2S(=O)(=O)C1` (single isomer, unassigned) [Example 11, (Z)-3-((3-butyl-5-(4-fluorophenyl)-7-(methylthio)-1,1-dioxido-2,3,4,5-tetrahydro-1,5-benzothiazepin-8-yl)oxy)-2-fluoroacrylic acid], the IC50 is 0.9 nM on human LBAT and 519 nM on human IBAT.

As for `CCCCC1CN(c2ccc(F)cc2)c2cc(SC)c(O/C=C(\F)C(=O)O)cc2S(=O)(=O)C1` (single isomer, unassigned) [Example 12, (Z)-3-((3-butyl-5-(4-fluorophenyl)-7-(methylthio)-1,1-dioxido-2,3,4,5-tetrahydro-1,5-benzothiazepin-8-yl)oxy)-2-fluoroacrylic acid], the IC50 was 15 nM at human LBAT and 1420 nM at human IBAT.

Regarding `CCCCC1CN(c2ccccc2)c2cc(SCC)c(O/C=C(\F)C(=O)O)cc2S(=O)(=O)C1` (single isomer, unassigned) [Example 14, (Z)-3-((3-butyl-7-(ethylthio)-1,1-dioxido-5-phenyl-2,3,4,5-tetrahydro-1,5-benzothiazepin-8-yl)oxy)-2-fluoroacrylic acid], the IC50 was 21 nM on human LBAT and over 10000 nM on human IBAT.

Take `CCCCC1CN(c2ccc(F)cc2)c2cc(SCC)c(O/C=C(\F)C(=O)O)cc2S(=O)(=O)C1` (single isomer, unassigned) [Example 17, (Z)-3-((3-butyl-7-(ethylthio)-5-(4-fluorophenyl)-1,1-dioxido-2,3,4,5-tetrahydro-1,5-benzothiazepin-8-yl)oxy)-2-fluoroacrylic acid]: the IC50 was 5.5 nM on human LBAT and over 3330 nM on human IBAT.

In the case of `CCCCC1CN(c2ccc(F)cc2)c2cc(SC)c(O/C=C(\F)C(=O)O)cc2S(=O)(=O)N1C` (single isomer, unassigned) [Example 21, (Z)-3-((3-butyl-5-(4-fluorophenyl)-2-methyl-7-(methylthio)-1,1-dioxido-2,3,4,5-tetrahydro-1,2,5-benzothiadiazepin-8-yl)oxy)-2-fluoroacrylic acid], the figures for the IC50 at human LBAT and on human IBAT were 10.1 nM and over 3330 nM, respectively.

On to `CCCCC1CN(c2ccc(F)cc2)c2cc(SCC)c(O/C=C(\F)C(=O)O)cc2S(=O)(=O)N1C` (single isomer, unassigned) [Example 23, (Z)-3-((3-butyl-7-(ethylthio)-5-(4-fluorophenyl)-2-methyl-1,1-dioxido-2,3,4,5-tetrahydro-1,2,5-benzothiadiazepin-8-yl)oxy)-2-fluoroacrylic acid], for which the figures for the IC50 on human LBAT and on human IBAT were 70 nM and over 3330 nM, respectively.

For `CCCCC1CN(c2ccccc2)c2cc(SCC)c(O/C=C(\F)C(=O)O)cc2S(=O)(=O)N1C` (single isomer, unassigned) [Example 26, (Z)-3-((3-butyl-7-(ethylthio)-2-methyl-1,1-dioxido-5-phenyl-2,3,4,5-tetrahydro-1,2,5-benzothiadiazepin-8-yl)oxy)-2-fluoroacrylic acid], the IC50 was 131 nM at human LBAT and 1130 nM on human IBAT.
